Values joined by “and” are separate entries in the source; they are usually repeats but may differ in a detail not shown here. Equal values may be shown once.
Conditions: one skin biopsy 0.28 cm^2, 90 minutes

- CPM (10 μL/cm^2 in water-ethanol on tape stripped skin): 1365 and 940 and 869
- DPM (counting efficiency 25%, tape stripped skin): 5337 and 3760 and 3476
SMILES: C[C@]12CC[C@@H]3c4ccc(O)[14cH]c4CC[C@H]3[C@@H]1CC[C@@H]2O [E2-14C, Estradiol, 17 β-[4-^14C]]
- Total E2 (ng/Biopsy) (tape stripped skin): 11.9 ng/Biopsy and 8.4 ng/Biopsy and 7.7 ng/Biopsy
- ng/Biopsy (E2-14C) (tape stripped skin): 11.9 ng/Biopsy and 8.4 ng/Biopsy and 7.7 ng/Biopsy
- μCi/Biopsy (tape stripped skin): 0.002402 μCi/Biopsy and 0.001692 μCi/Biopsy and 0.001564 μCi/Biopsy

Reference: patent publication US20260263350A1, “COMPOSITIONS” (Estrenue Pty Ltd, priority 2022, published 2026)
